Source: PubChem BioAssay AID250 (DTP/NCI, 2004)
Several values for one entry are separate records, joined by “and”; a condition that tells them apart may be missing. Equal entries are not always repeated. Inconclusive results and toxic doses are left out. The calls were made as follows: active = survival T/C of 150% or more; inactive = T/C below 125% in these data.

Tested on: BDF1 mice, L1210 leukemia sc, survival T/C
Assay: NCI In Vivo Anticancer Drug Screen. Data for tumor model L1210 Leukemia (subcutaneous) in B6D2F1 (BDF1) mice
Details: endpoint: median survival time, higher = longer survival
Summary of the method: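 Transplantable tumor-bearing mice; survival or tumor size recorded; result = T/C, treated vs vehicle control.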

Measured: T/C

C1CN1c1nc(N2CC2)nc(N2CC2)n1
active: dose: 1.08 mg/kg/injection, schedule: Q01DX Z (sc), vehicle: saline 160 % of control
inactive: dose: 0.23 mg/kg/injection, schedule: Q01DX Z (sc), vehicle: saline 100 % of control | dose: 0.39 mg/kg/injection, schedule: Q01DX Z (sc), vehicle: saline 104 % of control and 105 % of control | dose: 0.65 mg/kg/injection, schedule: Q01DX Z (sc), vehicle: saline 112 % of control and 115 % of control | dose: 3.0 mg/kg/injection, schedule: Q01DX Z (sc), vehicle: saline 108 % of control | dose: 5.0 mg/kg/injection, schedule: Q01DX Z (sc), vehicle: saline 104 % of control and 120 % of control

Cc1c2ccncc2c(C)c2c1[nH]c1ccccc12
inactive: dose: 5.0 mg/kg/injection, schedule: Q03HX008 (ip), vehicle: steriod suspending solution 111 % of control | dose: 5.0 mg/kg/injection, schedule: Q03HX008 (sc), vehicle: steriod suspending solution 100 % of control | dose: 10.0 mg/kg/injection, schedule: Q03HX008 (ip), vehicle: steriod suspending solution 111 % of control | dose: 10.0 mg/kg/injection, schedule: Q03HX008 (sc), vehicle: steriod suspending solution 111 % of control | dose: 20.0 mg/kg/injection, schedule: Q03HX008 (sc), vehicle: steriod suspending solution 111 % of control
active: dose: 40.0 mg/kg/injection, schedule: Q03HX008 (ip), vehicle: steriod suspending solution 150 % of control

O=NN(CCCl)C(=O)NC1CCCCC1
inactive: dose: 2.5 mg/kg/injection, schedule: Q01DX009 (sc), vehicle: other 123 % of control | dose: 3.0 mg/kg/injection, schedule: Q01DX Z (sc), vehicle: carboxymethylcellulose (CMC) 110 % of control | dose: 5.0 mg/kg/injection, schedule: Q01DX Z (sc), vehicle: carboxymethylcellulose (CMC) 120 % of control | dose: 8.4 mg/kg/injection, schedule: Q07DX Z (sc), vehicle: carboxymethylcellulose (CMC) 100 % of control | dose: 14.0 mg/kg/injection, schedule: Q01DX001 (sc), vehicle: carboxymethylcellulose (CMC) 120 % of control | dose: 32.0 mg/kg/injection, schedule: Q01DX009 (ip), vehicle: other 120 % of control
active: dose: 5.0 mg/kg/injection, schedule: Q01DX009 (sc), vehicle: other 158 % of control | dose: 5.0 mg/kg/injection, schedule: Q01DX Z (oral), vehicle: carboxymethylcellulose (CMC) 221 % of control | dose: 8.0 mg/kg/injection, schedule: Q01DX009 (ip), vehicle: other 152 % of control | dose: 8.4 mg/kg/injection, schedule: Q01DX Z (oral), vehicle: carboxymethylcellulose (CMC) 447 % of control | dose: 8.4 mg/kg/injection, schedule: Q01DX Z (sc), vehicle: carboxymethylcellulose (CMC) 315 % of control and 421 % of control | dose: 10.0 mg/kg/injection, schedule: Q01DX009 (sc), vehicle: other 160 % of control | dose: 14.0 mg/kg/injection, schedule: Q01DX Z (oral), vehicle: carboxymethylcellulose (CMC) 410 % of control | dose: 14.0 mg/kg/injection, schedule: Q01DX Z (sc), vehicle: carboxymethylcellulose (CMC) 400 % of control and 560 % of control | dose: 14.0 mg/kg/injection, schedule: Q07DX Z (sc), vehicle: carboxymethylcellulose (CMC) 165 % of control | dose: 20.0 mg/kg/injection, schedule: Q01DX009 (sc), vehicle: other 163 % of control | dose: 23.0 mg/kg/injection, schedule: Q01DX001 (sc), vehicle: carboxymethylcellulose (CMC) 150 % of control | dose: 23.0 mg/kg/injection, schedule: Q01DX Z (oral), vehicle: carboxymethylcellulose (CMC) 215 % of control | dose: 23.0 mg/kg/injection, schedule: Q01DX Z (sc), vehicle: carboxymethylcellulose (CMC) 265 % of control and 273 % of control | dose: 23.0 mg/kg/injection, schedule: Q07DX Z (sc), vehicle: carboxymethylcellulose (CMC) 170 % of control | dose: 39.0 mg/kg/injection, schedule: Q01DX001 (sc), vehicle: carboxymethylcellulose (CMC) 295 % of control | dose: 39.0 mg/kg/injection, schedule: Q01DX Z (oral), vehicle: carboxymethylcellulose (CMC) 157 % of control | dose: 39.0 mg/kg/injection, schedule: Q07DX Z (sc), vehicle: carboxymethylcellulose (CMC) 750 % of control | dose: 65.0 mg/kg/injection, schedule: Q01DX001 (sc), vehicle: carboxymethylcellulose (CMC) 355 % of control | dose: 65.0 mg/kg/injection, schedule: Q07DX Z (sc), vehicle: carboxymethylcellulose (CMC) 330 % of control | dose: 108.0 mg/kg/injection, schedule: Q01DX001 (sc), vehicle: carboxymethylcellulose (CMC) 750 % of control

Nc1nc(N)c2cc(CNc3ccc(C(=O)NC(CC(=O)O)C(=O)O)cc3)ccc2n1 (stereo not drawn)
active: dose: 0.78 mg/kg/injection, schedule: Q01DX Z (sc), vehicle: saline 216 % of control | dose: 1.56 mg/kg/injection, schedule: Q01DX Z (sc), vehicle: saline 200 % of control | dose: 3.12 mg/kg/injection, schedule: Q01DX Z (sc), vehicle: saline 150 % of control | dose: 50.0 mg/kg/injection, schedule: Q01DX001 (sc), vehicle: saline 166 % of control
inactive: dose: 6.25 mg/kg/injection, schedule: Q01DX Z (sc), vehicle: saline 122 % of control | dose: 6.3 mg/kg/injection, schedule: Q01DX001 (sc), vehicle: saline 122 % of control | dose: 12.5 mg/kg/injection, schedule: Q01DX001 (sc), vehicle: saline 116 % of control | dose: 12.5 mg/kg/injection, schedule: Q01DX Z (sc), vehicle: saline 111 % of control | dose: 25.0 mg/kg/injection, schedule: Q01DX Z (sc), vehicle: saline 100 % of control

Nc1[nH]c(=O)nc2[nH]ncc12
inactive: dose: 46.8 mg/kg/injection, schedule: Q01DX Z (sc), vehicle: methylcellulose (MC) 100 % of control | dose: 78.0 mg/kg/injection, schedule: Q01DX Z (sc), vehicle: methylcellulose (MC) 100 % of control | dose: 130.0 mg/kg/injection, schedule: Q01DX Z (sc), vehicle: methylcellulose (MC) 100 % of control | dose: 216.0 mg/kg/injection, schedule: Q01DX Z (sc), vehicle: methylcellulose (MC) 108 % of control | dose: 360.0 mg/kg/injection, schedule: Q01DX Z (sc), vehicle: methylcellulose (MC) 104 % of control | dose: 600.0 mg/kg/injection, schedule: Q01DX Z (sc), vehicle: methylcellulose (MC) 100 % of control

OCC1OC(n2cnc3c(=S)nc[nH]c32)C(O)C1O (stereo not drawn)
inactive: dose: 38.9 mg/kg/injection, schedule: Q01DX Z (sc), vehicle: methylcellulose (MC) 110 % of control | dose: 400.0 mg/kg/injection, schedule: Q03HX024 (sc), vehicle: other 105 % of control | dose: 1600.0 mg/kg/injection, schedule: Q01DX009 (ip), vehicle: other 122 % of control | dose: 3200.0 mg/kg/injection, schedule: Q01DX009 (sc), vehicle: other 111 % of control
active: dose: 50.0 mg/kg/injection, schedule: Q03HX024 (ip), vehicle: other 150 % of control | dose: 64.8 mg/kg/injection, schedule: Q01DX Z (sc), vehicle: methylcellulose (MC) 155 % of control | dose: 100.0 mg/kg/injection, schedule: Q03HX024 (ip), vehicle: other 155 % of control | dose: 100.0 mg/kg/injection, schedule: Q03HX024 (sc), vehicle: other 155 % of control | dose: 108.0 mg/kg/injection, schedule: Q01DX Z (sc), vehicle: methylcellulose (MC) 160 % of control | dose: 180.0 mg/kg/injection, schedule: Q01DX Z (sc), vehicle: methylcellulose (MC) 150 % of control | dose: 200.0 mg/kg/injection, schedule: Q03HX024 (ip), vehicle: other 161 % of control | dose: 200.0 mg/kg/injection, schedule: Q03HX024 (sc), vehicle: other 155 % of control | dose: 300.0 mg/kg/injection, schedule: Q01DX Z (sc), vehicle: methylcellulose (MC) 150 % of control | dose: 400.0 mg/kg/injection, schedule: Q01DX009 (ip), vehicle: other 155 % of control | dose: 400.0 mg/kg/injection, schedule: Q01DX009 (sc), vehicle: other 150 % of control | dose: 400.0 mg/kg/injection, schedule: Q03HX024 (ip), vehicle: other 155 % of control | dose: 800.0 mg/kg/injection, schedule: Q01DX009 (ip), vehicle: other 155 % of control | dose: 800.0 mg/kg/injection, schedule: Q01DX009 (sc), vehicle: other 161 % of control | dose: 1600.0 mg/kg/injection, schedule: Q01DX009 (sc), vehicle: other 155 % of control | dose: 3200.0 mg/kg/injection, schedule: Q04DX003 (sc), vehicle: other 150 % of control
